We go through twelve compounds from ChEMBL document CHEMBL1201862, “PubChem BioAssay data set” (2004).

As usually defined, the GI50 is the concentration at which growth is held to half of that of the control.

Holding throughout (assay): DTP human tumour cell line panel, 48 h
Assay [1] has as its system Malme-3M.
Assay [2] has as its system 786-0.
Assay [3] relates to SK-MEL-28.
The test system of assay [4] is NCI-H522.
Assay [5] concerns HOP-92.
The subject of assay [6] is SNB-19.
The test system of assay [7] is RPMI-8226.
Assay [8] deals with SNB-75.
In assay [9] the test system is UACC-62.
In assay [10] the test system is UACC-257.
Assay [11] deals with U-251.
In assay [12] the test system is A549.
Assay [13] has as its system NCI-H23.
Assay [14] concerns A498.
Assay [15] concerns HL-60.
In assay [16] the test system is K562.
The subject of assay [17] is NCI-H226.
Assay [18] relates to Hs-578T.
For assay [19], the system named is PC-3.

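A five-concentration, 48-hour dose response in 96-well plates underlies each endpoint, interpolated linearly between surrounding concentrations. GI50: concentration for 50% inhibition of growth.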 Calls of active or inactive are those of the source. Rule as the data show it: active = GI50 up to about 1.1 µM and inactive = higher.

As to `COc1ccc(O)c2c(=O)ccccc12`, the GI50 in assay [1] is > 100 µM (inactive); in [2], > 100 µM (inactive); in assay [3] it was > 100 µM (inactive); in [4], 28.8 µM (inactive); in [5], > 100 µM (inactive); in assay [6] it was > 100 µM (inactive). For the same compound, the GI50 was > 100 µM (inactive) in assay [7]; > 100 µM (inactive) in [8]; 92.3 µM (inactive) in [9]; > 100 µM (inactive) in assay [10]; > 100 µM (inactive) in [11]; > 100 µM (inactive) in assay [12]. For the same compound, the GI50 in assay [13] is > 100 µM (inactive); in assay [14] it was > 100 µM (inactive); in assay [15], > 100 µM (inactive); in assay [16], > 100 µM (inactive); in [17] it was 46.2 µM (inactive).

With `COc1ccc(N2/C(=N/c3ccccc3)SC(=N/S(=O)(=O)c3ccccc3)/C2=N\S(=O)(=O)c2ccccc2)cc1`, the GI50 in assay [1] is 21 µM (inactive); in [2] it was 24.9 µM (inactive); in assay [3] it was 14.5 µM (inactive); in assay [18] it was 18.6 µM (inactive); in assay [5], 16.4 µM (inactive); in assay [6] it was 18.7 µM (inactive). Also, the GI50 in assay [7] is 20.7 µM (inactive); in assay [8] it was 19.4 µM (inactive); in [9], 6.82 µM (inactive); in [10], 26.8 µM (inactive); in [11], 16.7 µM (inactive); in assay [12] it was 18.5 µM (inactive). Besides, the GI50 in assay [13] is 12.9 µM (inactive); in assay [14], 20.1 µM (inactive); in [19], 16.7 µM (inactive); in [15] it was 12.1 µM (inactive); in [16] it was 16.9 µM (inactive); in [17], 21.8 µM (inactive).

On to `COc1ccc(CNc2nc(NC3CCCCC3)nc(NC3CCCCC3)n2)cc1`, for which the GI50 in assay [1] is 9.25 µM (inactive); in assay [2] it was 5.71 µM (inactive); in [3], 20.6 µM (inactive); in assay [18] it was 7.29 µM (inactive); in assay [4] it was 4.31 µM (inactive); in assay [5], 8.75 µM (inactive). Further, the GI50 was > 100 µM (inactive) in assay [6]; 2.66 µM (inactive) in assay [7]; 8.81 µM (inactive) in [8]; 6.46 µM (inactive) in [9]; 13.9 µM (inactive) in assay [10]; 4.06 µM (inactive) in assay [11]. Besides, the GI50 in [12] is 5.38 µM (inactive); in [13], 2.4 µM (inactive); in [19], 5.15 µM (inactive); in assay [15] it was 4.88 µM (inactive); in assay [16], 5.08 µM (inactive); in assay [17] it was 2.99 µM (inactive).

Regarding `CC(C)OP(=O)(OC(C)C)/C(Cl)=N/Nc1ccc([N+](=O)[O-])cc1`, the GI50 in [1] is > 100 µM (inactive); in assay [2], > 100 µM (inactive); in [3], > 100 µM (inactive); in assay [4], > 100 µM (inactive); in assay [5], 44.9 µM (inactive); in [6], > 100 µM (inactive). For the same compound, the GI50 is > 100 µM (inactive) in [7]; > 100 µM (inactive) in [8]; 44.8 µM (inactive) in assay [9]; > 100 µM (inactive) in assay [10]; > 100 µM (inactive) in assay [11]; > 100 µM (inactive) in assay [12]. The GI50 in [13] was > 100 µM (inactive); in [14], 24 µM (inactive); in [15], 43.7 µM (inactive); in assay [16] it was 38.7 µM (inactive); in assay [17], 0.778 µM (active).

Turning to `CCOC(=O)N1C=CC(=C2C(=C3C=CN(C(=O)OCC)C=C3)C(=C3C=CN(C(=O)OCC)C=C3)C2=C2C=CN(C(=O)OCC)C=C2)C=C1`, the GI50 in [1] is 13.5 µM (inactive); in [2] it was 28.6 µM (inactive); in [3] it was 27.5 µM (inactive); in assay [18], 16 µM (inactive); in [4], 19.1 µM (inactive); in assay [5], 0.0637 µM (active). Besides, the GI50 is 64.6 µM (inactive) in [6]; 47.1 µM (inactive) in assay [8]; 16.9 µM (inactive) in assay [9]; 34.1 µM (inactive) in assay [10]; 13.7 µM (inactive) in assay [11]; 24.4 µM (inactive) in assay [12]. The GI50 in [13] was 26.2 µM (inactive); in [19] it was 17.1 µM (inactive); in [15], 33 µM (inactive); in assay [16], 23.8 µM (inactive); in [17], 22.3 µM (inactive).

As to `c1c[nH]c(Cc2nc(Cc3c[nH]cn3)c[nH]2)n1`, the GI50 was 5.07 µM (inactive) in assay [1]; 11.7 µM (inactive) in assay [2]; 28.2 µM (inactive) in [3]; 12.2 µM (inactive) in [4]; 22 µM (inactive) in assay [5]; 22.5 µM (inactive) in assay [6]. The GI50 is 10.1 µM (inactive) in assay [7]; 35.6 µM (inactive) in assay [8]; 19.8 µM (inactive) in assay [9]; 34 µM (inactive) in assay [11]; 3.96 µM (inactive) in [12]; 34.8 µM (inactive) in assay [13]. Moreover, the GI50 in [14] is 9.79 µM (inactive); in assay [15], 3.66 µM (inactive); in [16], 3.37 µM (inactive); in assay [17], 11.2 µM (inactive).

Take `COc1cc(/C=C\c2ccncc2)cc(OC)c1OC`: the GI50 in [1] is > 100 µM (inactive); in [2] it was > 100 µM (inactive); in assay [3], > 100 µM (inactive); in [4], 43.3 µM (inactive); in assay [5], 36.5 µM (inactive); in assay [6] it was > 100 µM (inactive). For the same compound, the GI50 is 38.3 µM (inactive) in assay [7]; 37.8 µM (inactive) in assay [8]; 59.2 µM (inactive) in assay [9]; > 100 µM (inactive) in assay [10]; > 100 µM (inactive) in assay [11]; 69 µM (inactive) in assay [12]. For the same compound, the GI50 is > 100 µM (inactive) in [14], 24.1 µM (inactive) in assay [15], 27.3 µM (inactive) in assay [16] and > 100 µM (inactive) in [17].

For the compound `C=C(CCC/C(C)=C/C=C/[C@]1(C)CCCc2ccoc21)CC(=O)O`, the GI50 in assay [1] is > 100 µM (inactive); in assay [2], > 100 µM (inactive); in [3], > 100 µM (inactive); in assay [18], 50.5 µM (inactive); in [4], > 100 µM (inactive); in assay [5], > 100 µM (inactive). The GI50 was > 100 µM (inactive) in assay [6]; 54.2 µM (inactive) in assay [7]; > 100 µM (inactive) in assay [8]; 75.3 µM (inactive) in assay [9]; > 100 µM (inactive) in [10]; 68.4 µM (inactive) in [11]. The GI50 in [12] is > 100 µM (inactive); in assay [13], > 100 µM (inactive); in assay [14] it was > 100 µM (inactive); in assay [19] it was 90.6 µM (inactive); in assay [15] it was 43.6 µM (inactive); in assay [16] it was 84.3 µM (inactive). In addition, the GI50 in assay [17] was > 100 µM (inactive).

For `O=C1C2Nc3ccccc3SC2C(=O)N1c1ccc(Br)cc1` (stereo not drawn), the GI50 in [1] was 27.2 µM (inactive); in assay [2], 18.9 µM (inactive); in [3], 62.2 µM (inactive); in assay [4], 21.7 µM (inactive); in assay [5], 10.9 µM (inactive); in assay [6] it was 34.3 µM (inactive). The GI50 in [7] is 13.1 µM (inactive); in [8], 24.5 µM (inactive); in assay [9] it was 20 µM (inactive); in assay [10] it was 26.5 µM (inactive); in assay [12], 31.6 µM (inactive); in [13] it was 36.5 µM (inactive). Also, the GI50 was 26 µM (inactive) in assay [14], > 10 µM (inactive) in [15], 21.9 µM (inactive) in assay [16] and 7.24 µM (inactive) in assay [17].

On to `CC(C)(C)C(=O)C(c1ccc(-c2cscn2)cc1)c1ccc(-c2cscn2)cc1`, for which the GI50 was > 56.4 µM (inactive) in assay [1]; 21.5 µM (inactive) in assay [2]; 46.3 µM (inactive) in assay [3]; 22.8 µM (inactive) in assay [4]; 9.55 µM (inactive) in assay [5]; 28.1 µM (inactive) in [6]. Moreover, the GI50 in [7] was 32.1 µM (inactive); in [8], 6.25 µM (inactive); in assay [9], 21.7 µM (inactive); in assay [10], 76 µM (inactive); in [11], 20.7 µM (inactive); in [12], 29.6 µM (inactive). Also, the GI50 in [13] was 30.5 µM (inactive); in [14], 21.9 µM (inactive); in [15], > 100 µM (inactive); in assay [16], > 92.9 µM (inactive); in assay [17], > 49.7 µM (inactive).

As to `Nc1ncnc2c1ncn2C1(CO)OC(CO)C(O)C1O` (stereo not drawn), the GI50 in [1], in assay [2], in assay [3], in [4], in assay [5] and in [6] was > 100 µM (inactive) throughout. Also, the GI50 in assay [7], in [8], in [10], in assay [11], in assay [12] and in assay [13] was > 100 µM (inactive) throughout. Further, the GI50 in assay [14], in [15] and in assay [17] was > 100 µM (inactive) throughout.

`CS/C(=N\c1nccs1)NC(=O)c1cccc(Cl)c1`: the GI50 in assay [1] was > 100 µM (inactive); in assay [2] it was > 100 µM (inactive); in [3] it was > 100 µM (inactive); in assay [4], 34.4 µM (inactive); in [5] it was 71.3 µM (inactive); in [6], > 100 µM (inactive). Also, the GI50 in [7] was 97.7 µM (inactive); in assay [8], 49.5 µM (inactive); in [9], > 100 µM (inactive); in [10] it was > 100 µM (inactive); in assay [11], 72.1 µM (inactive); in [12], > 100 µM (inactive). Besides, the GI50 in [13] was > 100 µM (inactive); in [14], 81.8 µM (inactive); in assay [15] it was 56.8 µM (inactive); in assay [16] it was > 100 µM (inactive); in assay [17], > 100 µM (inactive).
